Data taken from patent publication US20050163831A1, “Patch for transdermal administration” (Hisamitsu Pharmaceutical Co., Inc., priority 2002, published 2005).

Columns and labels:
[1] = permeability test through hairless mouse skin (flow-through cell); type: in vitro ADME; settings: for maximum value of the permeability rate of the drug per unit area of the skin, base agent Acetone: 1% (w/v) solution in acetone as donor; for maximum value of the permeability rate of the drug per unit area of the skin, base agent Acetone / maximum value of the permeability rate of the drug per unit area of the skin, base agent IPM / maximum value of the permeability rate of the drug per unit area of the skin, base agent Liquid paraffin / maximum value of the permeability rate of the drug per unit area of the skin, base agent PG: extirpated hairless mouse dorsal skin, 37° C., up to 24 hours; for maximum value of the permeability rate of the drug per unit area of the skin, base agent IPM: saturated solution in isopropyl myristate (IPM) as donor; for maximum value of the permeability rate of the drug per unit area of the skin, base agent Liquid paraffin: saturated solution in liquid paraffin as donor; for maximum value of the permeability rate of the drug per unit area of the skin, base agent PG: saturated solution in propylene glycol (PG) as donor
Experimental: Preliminary Test 1 (permeability test through hairless mouse skin)
A permeability test through hairless mouse skin was conducted for the following 1-12 test solutions:
First, dorsal skin of a hairless mouse was extirpated, which was set to a flow-through cell (effective area: 1 cm^2) with facing the dermis side to the receptor side, where a water of 37° C. was circulating the periphery of the cell. Next, 1 mL of Test solution 1 was charged in a cell on the stratum corneum side of the skin as a donor solution. While using a mixed solution of 40% (v/v) polyethylene glycol 400/physiological saline as a receptor layer, sampling of the receptor solution was carried out at a speed of 5 mL/hour every 2 hours up to 24 hours. For receptor solutions obtained at respective times, the flow volume was measured precisely and the drug concentration was measured by using high-performance liquid chromatography. From the obtained measurement values of the flow volume and drug concentration, the permeability rate per 1 hour was calculated to obtain the maximum value of the permeability rate of the drug per unit area of the skin.

[2] = tested on: yeast-induced paw inflammation and nociception; experiment: yeast-induced paw inflammation and nociception test in rats; type: in vivo; settings: 100 μL of 3% (w/v) solution in acetone applied to footpad for 3 hours; measured 3 hours after yeast injection; p<0.01 vs control
Text: Preliminary Test 2 (yeast-induced paw inflammation and nociception test in rats) First, SD male rats with weight of around 130 g were used to measure a pain threshold value (g) by using analgesimeter (Analgesy 7200, Ugo Basile) according to the method of Randall & […]. and […] method for measurement of analgesic activity on inflamed tissue. (1957) Arch. Int. Pharmacodyn. 4, 409-419], while defining removal reaction against pressure irritation to a right hind footpad as the index, and they were grouped such that there was no difference between the average pain threshold values of both groups. […] On the other hand, acetone was applied to the control group. After sufficient drying after the application, the rats were housed in separate cages without covering treatment. At this time, for the purpose of preventing oral drug intake, a collar was attached to all the rats including the control group. After 3 hours from the application described above, valdecoxib remaining at the applied site was wiped off with absorbent cotton having been dipped in slightly warm water and, immediately after the wipe, each 100 μL of a yeast suspension (20% Baker's Yeast) was injected subcutaneously to all the rats including the control group to induce inflammation. […] The obtained results are illustrated in FIG. 1.

[3] = tested on: carrageenin-induced paw edema; experiment: carrageenin-induced paw edema test in rats; type: in vivo; settings: 100 μL of 3% (w/v) solution in acetone applied to footpad for 3 hours; measured 3 hours after carrageenin; p<0.01 vs control
Text: Preliminary Test 3 (carrageenin-induced paw edema test in rats)
First, SD male rats with weight of around 110 g were used to measure a paw volume (mL) of a right hind footpad by using a water-replacement type paw volume determining device (Model TK-101 CMP, MUROMACHI KIKAI) according to the method of Fujihira et al. [Fujihira Eichi, Screening no Hoho to Mondaiten—Adjuvant Kansetsuen ni yoru Koenshoyaku no Kenteiho (Methods and Problems of Screening—Assay of Antiinflammatory Agent by Adjuvant Arthritis) (1971) Oyo Yakuri (Pharmacometrics) 5,169-183], and they were grouped such that there was no difference between the average paw volume values of both groups. Next, each 100 μL of a 3% (w/v) solution of valdecoxib in acetone was applied to the right hind footpad. On the other hand, acetone was applied to the control group. After sufficient drying after the application, the rats were housed in separate cages without covering treatment. […] After additional 3 hours, the paw volume at the right hind footpad was measured again to calculate an edema ratio (%) according to the following edema ratio calculation method (calculation formula): Edema ratio (%)=[(paw volume after 3 hours from inflammation (mL)−paw volume at ordinary time (mL))/paw volume at ordinary time (mL))]×100 to evaluate the antiinflammatory effect of valdecoxib. […]

Cc1onc(-c2ccccc2)c1-c1ccc(S(N)(=O)=O)cc1 [valdecoxib, 4-(5-methyl-3-phenylisoxazole-4-yl)benzenesulfonamide]
maximum value of the permeability rate of the drug per unit area of the skin, base agent Acetone [1]: 0.59 μg/cm^2/hr | skin permeability (in words) ([1]; compared with celecoxib and rofecoxib, Table 1): very high skin permeability | maximum value of the permeability rate of the drug per unit area of the skin, base agent IPM [1]: 2.97 μg/cm^2/hr | maximum value of the permeability rate of the drug per unit area of the skin, base agent Liquid paraffin [1]: 0.41 μg/cm^2/hr | maximum value of the permeability rate of the drug per unit area of the skin, base agent PG [1]: 4.10 μg/cm^2/hr | analgesic action (pain threshold value at right hind footpad, FIG. 1) [2]: significant analgesic action | antiinflammatory action (edema ratio, FIG. 2) [3]: significant antiinflammatory action

CS(=O)(=O)c1ccc(C2=C(c3ccccc3)C(=O)OC2)cc1 [rofecoxib, 3-phenyl-4-(4-methylsulfonylphenyl)-2(5H)-furanone]
maximum value of the permeability rate of the drug per unit area of the skin, base agent Acetone [1]: 0.09 μg/cm^2/hr | maximum value of the permeability rate of the drug per unit area of the skin, base agent IPM [1]: 0.00 μg/cm^2/hr | maximum value of the permeability rate of the drug per unit area of the skin, base agent Liquid paraffin [1]: 0.00 μg/cm^2/hr | maximum value of the permeability rate of the drug per unit area of the skin, base agent PG [1]: 0.00 μg/cm^2/hr

Cc1ccc(-c2cc(C(F)(F)F)nn2-c2ccc(S(N)(=O)=O)cc2)cc1 [celecoxib, 4-[5-(4-methylphenyl)-3-(trifluoromethyl)pyrazole-1-yl]benzolsulfonamide]
maximum value of the permeability rate of the drug per unit area of the skin, base agent Acetone [1]: 0.3 μg/cm^2/hr | maximum value of the permeability rate of the drug per unit area of the skin, base agent IPM [1]: 2.04 μg/cm^2/hr | maximum value of the permeability rate of the drug per unit area of the skin, base agent Liquid paraffin [1]: 0.00 μg/cm^2/hr | maximum value of the permeability rate of the drug per unit area of the skin, base agent PG [1]: 0.90 μg/cm^2/hr
